# In ChEMBL document CHEMBL1150134, “Triterpenoid constituents isolated from the bark of Abies sachalinensis” (J Nat Prod, 2002):
# Calls of active or inactive are those of the source. No cut-off for these calls is given here.
# What was measured:
# [1] = biological target: T1, DNA topoisomerase 2-alpha (Homo sapiens, UniProt P11388); assay: Inhibition of human DNA topoisomerase 2alpha
# Homo sapiens = species on record: Homo sapiens; assay: Inhibition of human DNA topoisomerase 1 at 200 uM
# [2] = biological target: T1, DNA topoisomerase 2-alpha; assay: Inhibition of human DNA topoisomerase 2alpha at 200 uM
# T1 sequence (P11388 whole entry): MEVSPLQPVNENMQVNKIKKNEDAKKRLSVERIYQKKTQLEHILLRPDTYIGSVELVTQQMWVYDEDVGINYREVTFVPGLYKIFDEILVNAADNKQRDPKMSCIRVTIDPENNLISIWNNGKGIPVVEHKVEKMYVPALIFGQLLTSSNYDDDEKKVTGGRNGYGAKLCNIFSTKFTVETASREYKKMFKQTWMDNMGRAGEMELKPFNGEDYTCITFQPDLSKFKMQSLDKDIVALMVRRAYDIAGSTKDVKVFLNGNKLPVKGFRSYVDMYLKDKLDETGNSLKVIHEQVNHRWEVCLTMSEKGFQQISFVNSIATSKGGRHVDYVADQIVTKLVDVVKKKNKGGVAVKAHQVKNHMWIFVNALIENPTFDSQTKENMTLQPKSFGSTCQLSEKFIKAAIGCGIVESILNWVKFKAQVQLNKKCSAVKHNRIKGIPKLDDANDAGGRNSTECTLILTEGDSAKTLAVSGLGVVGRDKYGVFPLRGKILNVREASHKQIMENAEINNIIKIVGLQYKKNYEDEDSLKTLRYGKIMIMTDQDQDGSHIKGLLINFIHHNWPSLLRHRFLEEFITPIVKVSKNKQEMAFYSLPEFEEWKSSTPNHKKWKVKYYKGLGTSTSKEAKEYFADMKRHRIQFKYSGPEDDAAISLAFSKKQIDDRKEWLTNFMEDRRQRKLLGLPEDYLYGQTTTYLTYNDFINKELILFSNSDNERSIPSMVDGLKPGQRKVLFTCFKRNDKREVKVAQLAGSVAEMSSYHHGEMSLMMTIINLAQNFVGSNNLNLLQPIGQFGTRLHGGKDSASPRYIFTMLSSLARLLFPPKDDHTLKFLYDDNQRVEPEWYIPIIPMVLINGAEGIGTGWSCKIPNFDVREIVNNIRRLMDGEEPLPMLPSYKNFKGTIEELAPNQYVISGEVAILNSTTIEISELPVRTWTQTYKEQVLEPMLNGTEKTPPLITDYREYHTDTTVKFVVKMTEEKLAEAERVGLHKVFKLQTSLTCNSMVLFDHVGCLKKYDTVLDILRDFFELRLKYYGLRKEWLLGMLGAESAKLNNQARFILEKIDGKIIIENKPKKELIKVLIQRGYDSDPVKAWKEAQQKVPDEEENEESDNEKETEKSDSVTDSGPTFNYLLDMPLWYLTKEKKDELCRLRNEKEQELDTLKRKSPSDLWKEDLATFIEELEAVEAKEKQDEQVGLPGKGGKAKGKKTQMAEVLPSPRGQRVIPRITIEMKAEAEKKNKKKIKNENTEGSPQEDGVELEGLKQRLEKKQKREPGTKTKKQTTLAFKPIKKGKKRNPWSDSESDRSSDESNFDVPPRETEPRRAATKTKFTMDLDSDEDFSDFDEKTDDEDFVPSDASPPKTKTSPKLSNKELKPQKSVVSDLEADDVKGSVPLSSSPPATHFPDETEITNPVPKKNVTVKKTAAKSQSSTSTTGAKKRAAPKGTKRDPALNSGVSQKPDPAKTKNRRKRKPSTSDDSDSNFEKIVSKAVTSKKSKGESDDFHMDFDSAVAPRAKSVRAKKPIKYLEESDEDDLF
Structure (SMILES),Activity [1],IC50 [1] [µM],Activity (Homo sapiens),Activity [2],inhibition [2] [%]
C=C(C)[C@@H]1CC=C2[C@@H](CC[C@]3(C)[C@@H]([C@H](C)CC(=O)C[C@@H](C)C(=O)OC)CC[C@@]23C)[C@@]1(C)CCC(=O)OC,Dose-dependent effect,67.3,inactive,Active,
C=C(C)[C@@H]1CC=C2[C@@H](CC[C@]3(C)[C@@H]([C@H](C)C[C@@H]4C[C@@H](C)C(=O)O4)CC[C@@]23C)[C@@]1(C)CCC(=O)O,Dose-dependent effect,42.6,inactive,Active,
C=C(C)[C@@H]1CC=C2[C@@H](CC[C@]3(C)[C@@H]([C@H](C)C[C@H](O)C[C@@H](C)CO)CC[C@@]23C)[C@@]1(C)CCCO,Dose-dependent effect,50.4,inactive,Active,
C=C(C)[C@@H]1CC=C2[C@@H](CC[C@]3(C)[C@@H]([C@H](C)CC(=O)C[C@@H](C)C(=O)O)CC[C@@]23C)[C@@]1(C)CCC(=O)O,,,inactive,,4
C=C(C)[C@@H]1CC=C2[C@@H](CC[C@]3(C)[C@@H]([C@H](C)C[C@@H]4C[C@@H](C)C(=O)O4)CC[C@@]23C)[C@@]1(C)CCC(=O)OC,Dose-dependent effect,75.7,inactive,Active,
